Laboratory results: patent publication US7294629B2, “Quinazoline derivatives” (Mitsubishi Pharma Corporation, priority 2001, dated 2007)

What was measured:
[1] = biological target: T1, EGF receptor partially purified by A431 cell line (Homo sapiens, UniProt P00533); assay: EGFR tyrosine kinase inhibitory action (A431 cell membrane fraction, 32P-ATP, Angiotensin II substrate); type: biochemical; details: EGF-stimulated, 10 μM ATP, in ice for 30 min
T1 construct: A431 cell membrane fraction, which was used for the assay as an enzyme source of partially purified EGF receptor; endogenous in cells; host or cells: A431 human epidermoid cancer cells (membrane fraction, 100,000 G pellet)
T1 sequence (P00533 25-1210): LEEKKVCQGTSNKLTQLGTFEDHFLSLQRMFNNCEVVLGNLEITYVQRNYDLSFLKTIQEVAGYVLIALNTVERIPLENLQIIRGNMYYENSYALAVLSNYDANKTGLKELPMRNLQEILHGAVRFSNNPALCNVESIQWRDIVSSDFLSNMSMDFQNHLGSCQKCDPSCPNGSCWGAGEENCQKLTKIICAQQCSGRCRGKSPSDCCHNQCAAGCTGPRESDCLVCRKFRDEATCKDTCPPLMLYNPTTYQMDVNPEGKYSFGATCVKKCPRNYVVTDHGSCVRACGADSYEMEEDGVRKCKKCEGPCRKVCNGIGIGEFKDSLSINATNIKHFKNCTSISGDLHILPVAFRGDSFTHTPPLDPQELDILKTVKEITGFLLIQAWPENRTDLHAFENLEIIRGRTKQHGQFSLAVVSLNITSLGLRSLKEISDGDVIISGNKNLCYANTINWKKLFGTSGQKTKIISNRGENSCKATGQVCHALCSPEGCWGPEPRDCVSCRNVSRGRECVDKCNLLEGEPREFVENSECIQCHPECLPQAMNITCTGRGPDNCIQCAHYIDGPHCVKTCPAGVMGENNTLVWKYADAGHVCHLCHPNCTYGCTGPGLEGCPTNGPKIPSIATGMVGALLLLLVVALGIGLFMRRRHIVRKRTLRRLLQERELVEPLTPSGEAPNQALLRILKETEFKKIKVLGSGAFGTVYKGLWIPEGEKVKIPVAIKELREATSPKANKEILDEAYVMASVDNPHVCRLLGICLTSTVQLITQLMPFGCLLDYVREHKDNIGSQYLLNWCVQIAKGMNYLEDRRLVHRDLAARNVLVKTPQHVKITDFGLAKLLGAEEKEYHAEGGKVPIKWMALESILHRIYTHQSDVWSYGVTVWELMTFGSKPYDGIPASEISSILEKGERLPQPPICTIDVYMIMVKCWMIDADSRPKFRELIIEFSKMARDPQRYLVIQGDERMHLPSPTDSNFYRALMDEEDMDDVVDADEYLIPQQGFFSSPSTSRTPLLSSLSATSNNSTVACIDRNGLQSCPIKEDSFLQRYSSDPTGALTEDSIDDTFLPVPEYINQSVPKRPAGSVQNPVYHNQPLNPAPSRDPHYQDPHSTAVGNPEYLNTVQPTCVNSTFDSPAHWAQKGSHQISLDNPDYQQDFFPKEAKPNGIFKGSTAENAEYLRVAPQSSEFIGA
Procedure: Specific method was as follows.
A431 cells were cultured in Dulbecco's Modified Eagle Medium (DMEM) containing 10% of fetal calf serum (FBS) at 37° C. under 5% carbon dioxide gas, and homogenized in a solution containing 10 mM N-2-hydroxyethylpiperazino-N′-2-ethanesulfonic acid (Hepes) buffer (pH 7.4), 0.25 M sucrose and 0.1 mM EDTA, and separated by centrifugation at 3000 G for 5 min. The supernatant was separated by centrifugation at 100,000 G for 30 min to separate A431 cell membrane fraction, which was used for the assay as an enzyme source of partially purified EGF receptor.
The reaction was carried out in ice for 30 min and 6 μL of 10 mg/mL bovine serum albumin and 25 μL of 20% trichloroacetic acid were added to stop the reaction. The reaction mixture was left in ice as it was for 30 min.
The mixture was centrifuged at 5000 G for 2 min and the supernatant was sampled by 40 μL and adsorbed on P81 phosphocellulose paper. […] This rinsing was repeated 4 times. The paper was taken out, the ^32P count was measured on a liquid scintillation counter and this value was taken as A.
Simultaneously, a reaction without the test substance and a reaction without the test substance and EGF were also measured and the counts thereof were taken as B and C, respectively.
The tyrosine kinase inhibitory rate can be determined from the following formula based on these values. Percent Inhibition (%)=100−{(A−C)/(B−C)}×100

A431 tumor = assay: In vivo antitumor effect on A431 tumor in nude mice; parameters: species or system Balb/c female nude mice
Procedure: (4) In vivo Antitumor Effect
Human epidermoid cancer cell A431 (5×10^6/100 μl) suspended in PBS was subcutaneously implanted on the back of Balb/c female nude mice (Balb/cAJcl-nu mouse, Clea Japan, Inc., 5-week-old when purchased) and when the average volume of the implanted tumor reached approximately about 100 mm^3 in about 7 days, the mice were allocated (4 per group) to make the average tumor volume the same for each group. The tumor volume was obtained by measuring the long diameter and the short diameter with a caliper and according to: [(short diameter)^2×long diameter/2]=tumor volume [mm^3]. A pharmaceutical agent was forcibly administered orally once a day for 14 consecutive days from the day of the allocation, and the drug was not given to the mice of the control group. The relative tumor growth rate, with the tumor volume of the day of start of the administration as 1, was calculated for the control group and the treatment group. Antitumor effect (%) of control=(relative tumor growth rate of treatment group on the last day −1)/(relative tumor growth rate of control group on the last day −1)×100

[2] = biological target: T2, mutated c-erbB2 (HER2) constitutively activated, in transformed NIH3T3 cells (A4 cell) (Homo sapiens, UniProt P04626, V659E); assay: HER2 tyrosine kinase inhibitory action (phosphotyrosine Western blotting in A4 cells); type: cell-based; details: 2 hrs, signal without compound = 100%; for remaining activity at 0.1 µM: read-out: % of control at 0.1 μM (phosphorylation signal); for remaining activity at 1 µM: read-out: % of control at 1 μM (phosphorylation signal)
T2 construct: expressed in transfected cells; host or cells: NIH3T3 mouse fibroblast cell line (A4 cell)
T2 sequence (P04626 23-1255 V659E): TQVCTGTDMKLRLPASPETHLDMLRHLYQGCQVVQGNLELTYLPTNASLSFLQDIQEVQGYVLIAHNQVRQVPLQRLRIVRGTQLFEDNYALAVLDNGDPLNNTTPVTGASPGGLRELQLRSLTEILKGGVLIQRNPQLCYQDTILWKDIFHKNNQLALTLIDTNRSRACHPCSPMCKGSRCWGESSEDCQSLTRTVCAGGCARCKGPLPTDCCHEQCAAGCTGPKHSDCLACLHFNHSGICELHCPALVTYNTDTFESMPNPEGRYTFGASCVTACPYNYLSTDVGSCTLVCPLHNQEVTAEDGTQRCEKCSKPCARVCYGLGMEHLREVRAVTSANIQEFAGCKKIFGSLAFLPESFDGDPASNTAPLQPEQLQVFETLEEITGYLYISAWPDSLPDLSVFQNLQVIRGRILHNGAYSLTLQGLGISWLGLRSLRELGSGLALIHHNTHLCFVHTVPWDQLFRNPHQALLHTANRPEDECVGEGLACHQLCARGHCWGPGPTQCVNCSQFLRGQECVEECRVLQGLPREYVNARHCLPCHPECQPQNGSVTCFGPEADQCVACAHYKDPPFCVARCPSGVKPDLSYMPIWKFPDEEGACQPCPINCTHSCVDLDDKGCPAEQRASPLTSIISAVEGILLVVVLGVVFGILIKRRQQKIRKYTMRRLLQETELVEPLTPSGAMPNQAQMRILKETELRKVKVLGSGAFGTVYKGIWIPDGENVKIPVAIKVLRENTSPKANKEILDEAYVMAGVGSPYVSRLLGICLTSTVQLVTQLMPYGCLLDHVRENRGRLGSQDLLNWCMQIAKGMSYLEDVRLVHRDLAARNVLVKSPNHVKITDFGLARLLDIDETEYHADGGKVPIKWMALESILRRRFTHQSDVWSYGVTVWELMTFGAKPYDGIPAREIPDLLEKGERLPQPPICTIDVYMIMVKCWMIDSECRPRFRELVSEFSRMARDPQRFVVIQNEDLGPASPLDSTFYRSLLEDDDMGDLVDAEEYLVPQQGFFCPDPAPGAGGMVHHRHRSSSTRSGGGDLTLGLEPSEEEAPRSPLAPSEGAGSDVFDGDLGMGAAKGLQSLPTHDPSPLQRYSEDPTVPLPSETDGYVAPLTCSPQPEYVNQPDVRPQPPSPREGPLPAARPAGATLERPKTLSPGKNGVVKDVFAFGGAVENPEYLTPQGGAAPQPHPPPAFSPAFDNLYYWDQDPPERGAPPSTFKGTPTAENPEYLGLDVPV
Procedure: (2) HER2 Tyrosine Kinase Inhibitory Action (Method)
As the cells, NIH3T3 mouse fibroblast cell line (provided by Institute of Development, Aging and Cancer, Tohoku University Cell Resource Center for Biomedical Research) transformed with mutated c-erbB2 constitutively activated by substituting valine at position 659 for glutamic acid was used. In the following, the cell is referred to as A4 cell. This cell line was cultured in DMEM/F12 mixed medium (hereinafter a complete medium) supplemented with 10% FBS in a plastic dish at 37° C., 5% CO2, 95% air.
The A4 cells suspended in a complete medium were seeded in a 12-well plate at 3×10^5/well, and confluent cells were cultured with the compound at 37° C. for 2 hrs. The cells were washed once with PBS, re-suspended in a lysis buffer (60 mM Tris (pH 6.8), 2% SDS, 10% glycerol, 5% beta-mercaptoethanol, 0.001% bromophenol blue), treated by ultrasonication and applied to Western blotting as a whole cell lysate.
The whole cell lysate (protein amount 25 μg) was applied to 7.5% SDS-polyacrylamide electrophoresis and transferred to PVDF membrane. The membrane was blocked and incubated with antiphosphotyrosine mouse monoclonal antibody in Tris buffer containing 0.1% Tween 20 and then treated with HRP-labeled antimouse second antibody. The membrane was developed with a chemiluminescent reagent. The chemiluminescence was taken with a lumino CCD camera and recorded electronically.

Compound | IC50 [1] | further results
CCOc1cc2ncnc(Nc3ccc(F)c(Cl)c3)c2cc1C#CC(C)(C)N1CCN(S(C)(=O)=O)CC1 [1bad] | 4 nM | 
COc1cc2ncnc(Nc3ccc(F)c(Cl)c3)c2cc1C#CC(C)(C)N1CCNCC1 [1bc] | 1.6 nM | 
C=CC(=O)Nc1cc2c(Nc3ccc(F)c(Cl)c3)ncnc2cc1C#CC(C)(C)N1CCC(N(C)C)CC1 [1aa] | 1.7 nM | 
COc1cc2c(Nc3ccc(F)c(Cl)c3)ncnc2cc1C#CC(C)(C)N1CCN(C)CC1 [1bi] | 1 nM | 
CCOCCN(CCOCC)C(C)(C)C#Cc1cc2c(Nc3ccc(F)c(Cl)c3)ncnc2cc1OCC [1bu] | 3.2 nM | 
COc1cc2c(Nc3ccc(F)c(Cl)c3)ncnc2cc1C#CC(C)(C)N1CCN(CC#N)CC1 [1bj] | 2.9 nM | 
C#Cc1cccc(Nc2ncnc3cc(OCC)c(C#CC(C)(C)N4CCN(C)CC4)cc23)c1 [1bam] | 3.3 nM | 
CCN1CCN(C(C)(C)C#Cc2cc3ncnc(Nc4ccc(F)c(Cl)c4)c3cc2NS(C)(=O)=O)CC1 [1ch] | 2.6 nM | 
CCOc1cc2ncnc(Nc3ccc(F)c(Cl)c3)c2cc1C#CC(C)(C)N(C)CCN(C)C [1bo] | 2.2 nM | 
C#Cc1cccc(Nc2ncnc3cc(OCC)c(C#CC(C)(C)N(C)CCN(C)C)cc23)c1 [1ban] | 2.6 nM | 
CC(C)(C#Cc1cc2ncnc(Nc3ccc(F)c(Cl)c3)c2cc1NS(C)(=O)=O)N1CCN(CCC#N)CC1 [1cw] | 2.5 nM | 
CCOc1cc2ncnc(Nc3ccc(F)c(Cl)c3)c2cc1C#CC(C)(C)N(CC)CC [1br] | 5.7 nM | 
C=CC(=O)Nc1cc2c(Nc3ccc(F)c(Cl)c3)ncnc2cc1C#CC(C)(C)N1CCN(C)CC1 [compound 1a.2TsOH, 1a.ditosylate] |  | % of control (antitumor effect) (A431 tumor; 1 mg/kg orally once a day for 14 days): 41.0%; relative tumor growth rate (A431 tumor; 1 mg/kg orally once a day for 14 days, volume at start = 1): 2.95; antitumor effect (in words) (A431 tumor; A431 tumor, oral, 14 days): dose-dependent antitumor effect
CN1CCN(C2(C#Cc3cc4ncnc(Nc5ccc(F)c(Cl)c5)c4cc3NS(C)(=O)=O)CCCCC2)CC1 [1cm] | 5.2 nM | 
CCC(C#Cc1cc2ncnc(Nc3ccc(F)c(Cl)c3)c2cc1NS(C)(=O)=O)(CC)N1CCN(C)CC1 [1cr] | 3.4 nM | 
C=CC(=O)Nc1cc2c(Nc3ccc(F)c(Cl)c3)ncnc2cc1C#CC(C)(C)N1CCOCC1 [1b] | 1.3 nM | 
C=CC(=O)Nc1cc2c(Nc3ccc(F)c(Cl)c3)ncnc2cc1C#CC(C)(C)N(C)C1CCN(C)CC1 [1ab] | 2.1 nM | 
C=CC(=O)Nc1cc2c(Nc3ccc(F)c(Cl)c3)ncnc2cc1C#CC(C)(C)N1CCN(CC#N)CC1 [1c] | 3.9 nM | 
CCOc1cc2ncnc(Nc3ccc(F)c(Cl)c3)c2cc1C#CC(C)(C)N(CC)CCC(=O)OC [1bab] | 5.6 nM | 
CCN(CCC(=O)OC)C(C)(C)C#Cc1cc2ncnc(Nc3ccc(F)c(Cl)c3)c2cc1NS(C)(=O)=O [1cu] | 5.5 nM | 
COc1cc2ncnc(Nc3ccc(F)c(Cl)c3)c2cc1C#CC(C)(C)N1CCN(C)CC1 [1ba] | 1.1 nM | 
CCOc1cc2ncnc(Nc3ccc(F)c(Cl)c3)c2cc1C#CC(C)(C)N(C)CCC#N [1bm] | 2.8 nM | 
CCOc1cc2ncnc(Nc3ccc(F)c(Cl)c3)c2cc1C#CC1(N2CCN(C)CC2)CCCCC1 [1bt] | 5 nM | 
C=CC(=O)Nc1cc2c(Nc3ccc(F)c(Cl)c3)ncnc2cc1C#CCCN1CCN(C)CC1 [1ac] | < 1 nM | remaining activity at 0.1 µM [2]: 9%; remaining activity at 1 µM [2]: 3%
C#Cc1cccc(Nc2ncnc3cc(OCC)c(C#CC(C)(C)N4CCOCC4)cc23)c1 [1baj] | 3.3 nM | 
COc1cc2ncnc(Nc3ccc(F)c(Cl)c3)c2cc1C#CC(C)(C)N1CCN(CC(C)C)CC1 [1be] | 8 nM | 

The remaining compounds from weak to strong by IC50 [1], led by results:

IC50 [1] | Compound | further results
7.7 nM | CC(C)(C#Cc1cc2ncnc(Nc3ccc(F)c(Cl)c3)c2cc1NS(C)(=O)=O)N1CCN(CC#N)CC1 [1ca] | 
5.1 nM | CCOc1cc2ncnc(Nc3ccc(F)c(Cl)c3)c2cc1C#CC(CC)(CC)N1CCN(C)CC1 [1bag] | 
4.4 nM | COc1cccc(Nc2ncnc3cc(OC)c(C#CC(C)(C)N4CCN(C)CC4)cc23)c1 [1bh] | 
3.5 nM | CCOc1cc2ncnc(Nc3ccc(F)c(Cl)c3)c2cc1C#CC(C)(C)N1CCCCC1 [1bn] | 
3.4 nM | CCOc1cc2ncnc(Nc3ccc(F)c(Cl)c3)c2cc1C#CC(C)(C)NCCN1CCOCC1 [1bx] | 
3.3 nM | CCOc1cc2ncnc(Nc3ccc(F)c(Cl)c3)c2cc1C#CC(C)(C)N1CCC(OC)CC1 [1baf] | 
3 nM | CCCN1CCN(C(C)(C)C#Cc2cc3c(Nc4ccc(F)c(Cl)c4)ncnc3cc2OC)CC1 [1bd] | 
2.8 nM | CCOc1cc2ncnc(Nc3ccc(F)c(Cl)c3)c2cc1C#CC(C)(C)N1CCN(C(C)=O)CC1 [1baa] | 
2.8 nM | CC(C)(C#Cc1cc2ncnc(Nc3ccc(F)c(Cl)c3)c2cc1NS(C)(=O)=O)N1CCCC1 [1cx] | 
2.8 nM | CCOc1cc2ncnc(Nc3ccc(F)c(Cl)c3)c2cc1C#CC(C)(C)N1CCCN(C)CC1 [1bw] | 
2.7 nM | CN1CCC(N(C)C(C)(C)C#Cc2cc3ncnc(Nc4ccc(F)c(Cl)c4)c3cc2NS(C)(=O)=O)CC1 [1cj] | 
2.6 nM | CCOc1cc2ncnc(Nc3ccc(F)c(Cl)c3)c2cc1C#CC(C)(C)N1CCN(CCOC)CC1 [1bah] | 
2.5 nM | CCOc1cc2ncnc(Nc3ccc(F)c(Cl)c3)c2cc1C#CC(C)(C)N1CCN(CCC#N)CC1 [1bae] | 
2.4 nM | C=CC(=O)Nc1cc2c(Nc3ccc(F)c(Cl)c3)ncnc2cc1C#CC(C)(C)N1CCNCC1 [1ap] | remaining activity at 0.1 µM [2]: 74%; remaining activity at 1 µM [2]: 24%
2.2 nM | CCOc1cc2ncnc(Nc3ccc(F)c(Cl)c3)c2cc1C#CC(C)(C)N1CCN(CC)CC1 [1bz] | 
2.2 nM | CCOc1cc2ncnc(Nc3ccc(F)c(Cl)c3)c2cc1C#CC(C)(C)N(C)CCOC [1bl] | 
2.1 nM | CCOc1cc2ncnc(Nc3ccc(F)c(Cl)c3)c2cc1C#CC(C)(C)N1CCOCC1 [1bk] | 
2.1 nM | CN1CCN(C(C)(C)C#Cc2cc3ncnc(Nc4ccc(F)c(Cl)c4)c3cc2NS(C)(=O)=O)CC1 [1cg] | 
2.1 nM | CCOc1cc2ncnc(Nc3ccc(F)c(Cl)c3)c2cc1C#CC(C)(C)N1CCN(C)CC1 [1bp] | 
1.8 nM | C#Cc1cccc(Nc2ncnc3cc(OCC)c(C#CC(C)(C)N4CCN(CC#N)CC4)cc23)c1 [1bai] | 
1.8 nM | COCCN1CCN(C(C)(C)C#Cc2cc3ncnc(Nc4ccc(F)c(Cl)c4)c3cc2NS(C)(=O)=O)CC1 [1cv] | 
1.5 nM | CCOc1cc2ncnc(Nc3ccc(F)c(Cl)c3)c2cc1C#CC(C)(C)N1CCC(O)CC1 [1bv] | 
1.3 nM | COc1cc2ncnc(Nc3ccc(F)c(Cl)c3)c2cc1C#CC(C)(C)N1CCN(CC#N)CC1 [1bb] | 
1.1 nM | CCOc1cc2ncnc(Nc3ccc(F)c(Cl)c3)c2cc1C#CC(C)(C)N1CCN(CC#N)CC1 [1bs] | 
0.82 nM | COc1cc2ncnc(Nc3ccc(F)c(Cl)c3)c2cc1/C=C/C(C)(C)N1CCN(C)CC1 [1bf] | 
